In US4292321A, “1,3,8-Triazaspirodecane-4-ones, pharmaceutical compositions thereof and method of use thereof” (Warner-Lambert Company, priority 1980, dated 1981):
Structures can show the parent of a compound that is named as a salt. Where two headings read alike, the source gives them in different places.

Target: T1, dopamine receptor (Bos taurus, UniProt P20288)
T1 construct: from tissue
Test: 3H-haloperidol receptor binding assay (HRBA)
Details: for inhibition at 0.01 µM / inhibition at 0.1 µM / inhibition at 0.001 µM: read-out: inhibition of 3H-haloperidol binding; for inhibition at 0.001 µM: 1 n mole concentration
Excerpt: The compounds of this invention are useful because of their valuable pharmacological properties. […] As with other known neuroleptics, the compounds of this invention readily displace ^3 H-haloperidol from dopamine receptor binding sights in the ^3 H-haloperidol receptor binding assay (HRBA). […] The HRBA screen is described by I. Creese, D. R. Burt and S. H. Snyder, Science 142: 480 (1976) and by B. Seeman, T. Lee, M. Chani-Wong and K. Wong, Nature 261: 717 […].

T1 sequence (P20288 whole entry): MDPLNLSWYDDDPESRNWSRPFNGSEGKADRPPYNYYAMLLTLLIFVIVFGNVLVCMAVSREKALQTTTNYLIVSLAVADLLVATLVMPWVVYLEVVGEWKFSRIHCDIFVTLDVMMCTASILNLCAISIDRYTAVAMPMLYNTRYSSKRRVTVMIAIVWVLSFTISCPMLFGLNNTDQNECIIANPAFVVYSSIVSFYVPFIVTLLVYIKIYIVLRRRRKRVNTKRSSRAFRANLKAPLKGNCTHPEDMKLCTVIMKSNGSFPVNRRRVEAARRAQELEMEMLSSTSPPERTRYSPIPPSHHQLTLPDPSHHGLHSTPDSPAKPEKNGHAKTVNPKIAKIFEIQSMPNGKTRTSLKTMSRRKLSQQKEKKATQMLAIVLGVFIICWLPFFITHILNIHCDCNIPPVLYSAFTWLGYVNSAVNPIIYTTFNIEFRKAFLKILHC

Cc1cccc(C2CCN(CCCN(c3ccccc3)c3ccccc3)CC2)c1 [Example 41, N,N-diphenyl-4-[3-methylphenyl]-1-piperidinepropanamine butenedioate]
inhibition at 0.01 µM (10 n moles concentration): ~25%
inhibition at 0.1 µM (100 n moles concentration): ~84%

C1=C(Oc2ccccc2)CCN(CCCN(c2ccccc2)c2ccccc2)C1 [Example 21, 3,6-Dihydro-4-phenoxy-N,N-diphenyl-1(2H)-pyridinepropanamine ethanedioate.]
inhibition at 0.01 µM (10 n moles concentration): ~8%
inhibition at 0.1 µM (100 n moles concentration): ~48%

OCCN1CCN(CCCN(c2ccc(F)cc2)c2ccc(F)cc2)CC1 [Example 36, 4-[3-[Bis(4-fluorophenyl)amino]propyl]-1-piperazineethanol dihydrochloride]
inhibition at 0.01 µM: ~21%
inhibition at 0.1 µM: ~62%

Cl.Cl.Fc1ccc(N(CCCN2CCN(c3ccccc3)CC2)c2ccc(F)cc2)cc1 [Example 37, N,N-bis(4-fluorophenyl)-4-phenyl-1-piperazinepropanamine dihydrochloride]
inhibition of 3H-haloperidol binding (10 n moles concentration): no inhibition
inhibition at 0.1 µM: ~37%

OC(c1ccccc1)C1CCN(CCCN(c2ccccc2)c2ccccc2)CC1 (stereo not drawn) [Example 43, 1-[3-(Diphenylamino)propyl]-alpha-phenyl-4-piperidine methanol.]
inhibition of 3H-haloperidol binding (10 n moles concentration): no inhibition
inhibition at 0.1 µM (100 n moles concentration): ~18%

Cc1cc2[nH]c(=O)n(C3CCN(CCCN(c4ccccc4)c4ccccc4)CC3)c2cc1C [Example 13, 1-[1-(3-[Diphenylamino]propyl)-4-piperidiyl]-1,3-dihydro-5,6-dimethyl-2H-benzimidazol-2-one]
inhibition at 0.01 µM (10 n moles concentration): ~53%
inhibition at 0.1 µM (100 n moles concentration): ~93%

O=c1[nH]c2ccccc2n1C1CCN(CCCN(c2ccccc2)c2ccc(F)cc2)CC1 [Example 15, 1,3-Dihydro-1-[1-[3-[(4-fluorophenyl)phenylamino]propyl]-4-piperidinyl]-2H-benzimidazol-2-one]
inhibition at 0.01 µM (10 n moles concentration): ~74%
inhibition at 0.1 µM (100 n moles concentration): ~100%

Cc1cc2[nH]c(=O)n(C3CCN(CCCN(c4ccc(F)cc4)c4ccc(F)cc4)CC3)c2cc1C [Example 17, 1-[1-[3-[Bis-(4-fluorophenyl)amino]propyl]-4-piperidyl]-1,3-dihydro-5,6-dimethyl-2H-benzimidazol-2-one]
inhibition at 0.001 µM: ~29%
inhibition at 0.01 µM (10 n moles concentration): ~85%
inhibition at 0.1 µM (100 n moles concentration): ~100%

O=c1[nH]c2ccccc2n1C1CCN(CCCN(c2ccccc2)c2ccc([N+](=O)[O-])cc2)CC1 [Example 10, 1,3-Dihydro-1-[1-(3-[(4-nitrophenyl)phenylamino]propyl)-4-piperidinyl]-2H-benzimidazol-2-one hydrochloride]
inhibition at 0.01 µM: ~17%
inhibition at 0.1 µM: ~75%

O=C1NCN(c2ccccc2)C12CCN(CCCN(c1ccc(F)cc1)c1ccc(F)cc1)CC2 [Example 1, 8-[3-(Bis-[4-fluorophenyl]amino)propyl]-1-phenyl-1,3,8-triazaspiro[4,5]decan-4-one hydrobromide]
inhibition at 0.01 µM: ~73%
inhibition at 0.1 µM: ~77%

Cc1cc2c(cc1C)n(C1CCN(CCCN(c3ccccc3)c3ccccc3)CC1)c(=O)n2C [Example 16, 1-[1-([3-Diphenylamino]propyl)-4-piperidinyl]-1,3-dihydro-3,5,6-trimethyl-2H-benzimidazol-2-one butenedioate]
inhibition at 0.01 µM (10 n moles concentration): ~6%
inhibition at 0.1 µM (100 n moles concentration): ~60%

O=c1[nH]c2ccccc2n1C1CCN(CCCN(c2ccccc2)c2ccccc2)CC1 [Example 9, 1-[1-(3-(Diphenylamino]propyl)-4-piperidinyl]-1,3-dihydro-2H-benzimidazol-2-one hydrochloride]
inhibition at 0.01 µM: ~68%
inhibition at 0.1 µM: ~91%

O=c1[nH]c2ccccc2n1C1CCN(CCCN(c2ccc(F)cc2)c2ccccc2F)CC1 [Example 14, 1,3-Dihydro-1-[1-[3-[(4-fluorophenyl)-(2-fluorophenyl)amino]propyl]-4-piperidinyl]-2H-benzimidazol-2-one]
inhibition at 0.001 µM: ~56%
inhibition at 0.01 µM (10 n moles concentration): ~92%
inhibition at 0.1 µM (100 n moles concentration): ~100%

Cc1ccc(N2CNC(=O)C23CCN(CCCN(c2ccccc2)c2ccccc2)CC3)cc1 [Example 3, 8-[3-(Diphenylamino)propyl]-1-(4-methylphenyl)-1,3,8-triazaspiro[4,5]decan-4-one]
inhibition at 0.01 µM: ~71%
inhibition at 0.1 µM: ~87%
